The record followed here is US10934297B2, “5-heteroaryl substituted indazole-3-carboxamides and preparation and use thereof” (Samumed, LLC, priority 2018, dated 2021).

What is called pEC50 is the EC50 on a negative log10 scale, so that one unit is a factor of ten. Lower therefore signals a high EC50. The term pIC50 denotes the IC50 on a negative log10 scale, so that one unit is a factor of ten. For orientation: inhibition means the drop in the measured response relative to a control, in per cent.

pEC50, pIC50: −log10 of the molar value.

Test [1] deals with Wnt activity (Sp5-Luc reporter in SW480 cells). In words: Screening assay for Wnt activity: Sp5-Luc reporter gene assay in SW480 colon carcinoma cells. Type of test: cell-based, human. The settings on record: Homo sapiens, 36 to 48 hours. In a few lines: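 SW480 colon carcinoma cells stably carrying a lentiviral luciferase reporter driven by an Sp5 promoter with eight TCF/LEF sites, plated at 4,000 cells/well in DMEM with 1% FBS. Compound exposure for 36–48 h at 37 °C, then luminescence read. Signals normalized to DMSO; EC50 from four-parameter nonlinear fit.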

Test [2] has as its target DYRK1A kinase (Homo sapiens (Human), UniProt Q13627). In words: DYRK1A kinase assay (Ser/Thr 18 peptide Z-lyte FRET). Type of test: biochemical. The settings on record: read-out: EC50 (method: IC50). In a few lines: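 This Z-lyte FRET assay reads the coumarin/fluorescein emission ratio. Compounds were incubated with the reaction mixture for 1 h at room temperature, followed by development reagent for a further 1 h at room temperature, in duplicate.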

Test [3] concerns the target GSK3β kinase (Homo sapiens (Human), UniProt P49841). Put plainly: GSK3β kinase assay (Ser/Thr 09 peptide Z-lyte FRET). Type of test: biochemical. Conditions: read-out: EC50 (method: IC50). The procedure, abridged:
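Non-radioactive Z-lyte FRET read-out, kinase activity expressed as coumarin/fluorescein emission ratio. Compounds incubated with the reaction mixture one hour at room temperature in duplicate, then development buffer added for another hour. IC50 from non-linear regression of dose-response curves.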

Test [4] deals with SW480 colon carcinoma cells. Put plainly: Cell viability assay (CellTiter-Glo) in SW480 colon carcinoma cells. The settings on record: Homo sapiens, 96 h, four days. It counts as cell-based, human. The procedure, abridged:
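SW480 cells stably carrying an Sp5-promoter luciferase reporter were plated at 2,000 cells/well in DMEM with 1% FBS and treated with compound for four days at 37 °C. Viability was read as ATP luminescence with CellTiter-Glo after about 12 min; DMSO-treated wells served as controls.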

Test [5] concerns primary human fibroblasts derived from IPF patients (LL29 cells). In words: Inhibition of the fibrotic process: αSMA staining in TGF-β1 treated LL29 fibroblasts. Conditions: Homo sapiens, Fibroblast; for pEC50: 96 h, LL29 cells, TGF-β1 20 ng/mL, 4 days, % αSMA positive cells; for inhibition at 10 µM: read-out: percent inhibition at 10 μM. Type of test: cell-based. In a few lines:
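LL29 fibroblasts from IPF patients, in F12 medium with 1% FBS, treated with TGF-β1 plus compound; TGF-β1 with DMSO as positive control, DMSO alone as negative control. After 4 days' incubation, SYTOX green nucleic acid stain added at 1 μM final, 30 min at room temperature.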

The subject of test [6] is IL-6. Put plainly: IL-6 inhibition in LPS-stimulated human peripheral blood mononuclear cells (HTRF). Type of test: cell-based. The settings on record: Homo sapiens, PBMC; for pEC50: huPBMCs, LPS 50 ng/mL, 22 hours, IL-6 HTRF; for inhibition at 10 µM: read-out: percent inhibition at 10 μM. The procedure, abridged:
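Fresh human PBMCs at 1×10e6 cells/mL in RPMI/1% FBS were stimulated with 50 ng/mL E. coli 0111:B4 LPS added 2 h after compound, then incubated 22 h at 37° C. Secreted IL-6 was measured by HTRF (665/620 nm ratio) after 3 h at room temperature. EC50 was taken from activity normalized to DMSO-treated cells.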
(In TR-FRET formats the signal depends on donor and acceptor labels being close together.)

Test [7] relates to primary human mesenchymal stem cells (hMSCs). In words: Tenocyte differentiation assay (SCXA-positive cells) in hMSCs. Conditions: for pEC50: Homo sapiens, Mesenchymal stem cells, 96 h, hMSCs, 4 days, SCXA positive cells; for percent in parentheses under EC50 >100: given for EC50 >100 μM, meaning not defined in this example. Type of test: cell-based. The text has this:
Representative compounds were screened using primary human mesenchymal stem cells (hMSCs) to determine their ability to induce tenocyte differentiation (process by which tendon is developed).
Primary human mesenchymal stem cells (hMSCs) were purchased from Lonza (Walkersville, Md.) and expanded in Mesenchymal Stem Cell Growth Media (Lonza). Cells between passage 3 and 6 were used for the experiments.
Cells were fixed using 4% formaldehyde (Electron Microscopy Sciences), and stained with anti-Sclerasis (anti-SCXA) antibodies (Abgent, San Diego, Calif.) [Webb S., et.al., Retinoic acid receptor signaling preserves tendon stem cell characteristics and prevents spontaneous differentiation in vitro, Stem Cell Research & Therapy 2016, 7:45] overnight at 4° C. […] Number of cells positive for SCXA in each well was quantified using the CellInsight CX5. Data was normalized to the average of 12 DMSO treated wells on the same plate using Dotmatics Studies module. The normalized averages (fold change over DMSO) of 3 replicate wells for each compound concentration were calculated. Due to solubility limitations of some of the compounds, values for higher doses were manually corrected and curve fitting and EC50 determinations were performed using Dotmatics Studies.

Sequence of GSK3β kinase (P49841 whole entry): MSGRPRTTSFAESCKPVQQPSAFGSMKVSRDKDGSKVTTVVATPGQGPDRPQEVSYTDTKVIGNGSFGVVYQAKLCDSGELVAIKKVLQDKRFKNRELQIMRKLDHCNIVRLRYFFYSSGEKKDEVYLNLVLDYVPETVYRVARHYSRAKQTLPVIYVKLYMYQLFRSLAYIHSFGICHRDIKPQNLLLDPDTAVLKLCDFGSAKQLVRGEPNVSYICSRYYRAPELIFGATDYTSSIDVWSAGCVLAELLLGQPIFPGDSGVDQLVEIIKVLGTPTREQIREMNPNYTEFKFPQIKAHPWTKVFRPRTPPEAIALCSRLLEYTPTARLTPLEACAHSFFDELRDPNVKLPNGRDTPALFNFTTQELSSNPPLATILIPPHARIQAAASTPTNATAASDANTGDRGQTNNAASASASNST

Regarding `CNC(=O)c1ccc(NC(=O)c2n[nH]c3ccc(-c4cnn(C5CCN(C)CC5)c4)cc23)cn1` [Compound 128, N-(6-(Methylcarbamoyl)pyridin-3-yl)-5-(1-(1-methylpiperidin-4-yl)-1H-pyrazol-4-yl)-1H-indazole-3-carboxamide], the negative-log EC50 (pEC50) in test [1] is 6.74; in test [4] it was 6.31; in test [5] it was 6.36; in test [6], 5.48; in test [7] it was 5.24. The negative logarithm of the IC50 (pIC50) was 8.30 in test [2] and 6.20 in test [3].

Consider `CN1CCC(Oc2ccc(NC(=O)c3n[nH]c4c(F)cc(-c5cnn(C)c5)cc34)cn2)CC1` [Compound 129, 7-Fluoro-5-(1-methyl-1H-pyrazol-4-yl)-N-(6-((1-methylpiperidin-4-yl)oxy)pyridin-3-yl)-1H-indazole-3-carboxamide], for which the pEC50 in test [1] was 5.21; in test [4] it was 5.52; in test [5], 5.73; in test [6], 5.17; in test [7], less than 4.00. Further, the results for the pIC50 in test [2] and in test [3] were 7.52 and 7.06, respectively. Besides, the “percent in parentheses under EC50 >100” value in test [7] is listed as “(13.0%)”.

`Cc1ncc(-c2ccc3[nH]nc(C(=O)N[C@@H](C)C(F)(F)F)c3c2)n1C` [Compound 131, (S)-5-(1,2-Dimethyl-1H-imidazol-5-yl)-N-(1,1,1-trifluoropropan-2-yl)-1H-indazole-3-carboxamide]: the negative-log EC50 (pEC50) in test [1] is less than 5.00; in test [4], 5.52; in test [5], 5.35; in test [6], less than 5.00; in test [7] it was 5.56. Moreover, the pIC50 in test [2] is 6.66; in test [3] it was 7.57. Further, the inhibition at 10 µM in test [6] was 15.1%.

Take `CC[C@H](NC(=O)c1n[nH]c2ccc(-c3cnc(C)n3C)cc12)C(F)(F)F` [Compound 132, (S)-5-(1,2-Dimethyl-1H-imidazol-5-yl)-N-(1,1,1-trifluorobutan-2-yl)-1H-indazole-3-carboxamide]: the negative-log EC50 (pEC50) is less than 5.00 in test [1]; less than 5.00 in test [4]; less than 5.00 in test [5]; less than 5.00 in test [6]; less than 4.00 in test [7]. Besides, the pIC50 in test [2] is 6.34; in test [3], 6.97. The figures for the inhibition at 10 µM in test [5] and in test [6] were 48.8% and 12.7%, respectively. In addition, the “percent in parentheses under EC50 >100” value in test [7] was “(26.5%)”.

`Cc1ncc(-c2ccc3[nH]nc(C(=O)N[C@@H](C(C)C)C(F)(F)F)c3c2)n1C` [Compound 133, (S)-5-(1,2-Dimethyl-1H-imidazol-5-yl)-N-(1,1,1-trifluoro-3-methylbutan-2-yl)-1H-indazole-3-carboxamide]: the pEC50 in test [1] was less than 5.00; in test [4] it was less than 5.00; in test [5] it was less than 5.00; in test [6], less than 5.00; in test [7] it was less than 4.00. Besides, the negative logarithm of the IC50 (pIC50) in test [2] is 6.03; in test [3], 5.87. The inhibition at 10 µM in test [5] came to 35.8%; in test [6], 20.2%. Also, the “percent in parentheses under EC50 >100” value in test [7] is listed as “(15.8%)”.

Turning to `Cc1ncc(-c2cc(F)c3[nH]nc(C(=O)N[C@@H](C)C(F)(F)F)c3c2)n1C` [Compound 134, (S)-5-(1,2-Dimethyl-1H-imidazol-5-yl)-7-fluoro-N-(1,1,1-trifluoropropan-2-yl)-1H-indazole-3-carboxamide], the pEC50 was less than 5.00 in test [1]; less than 5.00 in test [4]; 5.97 in test [5]; less than 5.00 in test [6]; less than 4.00 in test [7]. Moreover, the values for the pIC50 in test [2] and in test [3] were 6.32 and 7.34, respectively. Also, the inhibition at 10 µM in test [6] was found to be 8.1%. Besides, the “percent in parentheses under EC50 >100” value in test [7] is reported as “(38.8%)”.
